Data as given in patent publication US7250410B2, “Cyclic nucleotide phosphodiesterase inhibitors, preparation and uses thereof” (Via Pharmaceuticals, Inc., priority 2001, dated 2007).
Values joined by “and” are separate entries in the source; they are usually repeats but may differ in a detail not shown here. Equal values may be shown once.

Key:
[1] = target: T1, PDE5 (Bos taurus, UniProt Q28156); experiment: Selectivity: inhibition of PDE5, radioenzymatic phosphodiesterase assay; assay type: biochemical, bovine; details: Table 4 Selectivity
T1 construct: localize the different enzymes PDE1, PDE3, PDE4 and PDE5, which were aliquoted and frozen; from tissue; host or cells: bovine aortic media (vascular smooth muscle), DEAE-Sephacel fraction
Description: (§1) A 3 g segment of bovine aortic media cut into pieces with scissors was homogenized with an ultra-turrax then a potter glass/glass homogenizer in 7 volumes by weight of buffer A containing a protease inhibitor cocktail (20 mM Tris-HCl, 0.25 M saccharose, 2 mM magnesium acetate, 1 mM dithiothreitol, 5 mM EGTA, 2000 U/ml aprotinin, 10 mg/l leupeptin and 10 mg/l soya trypsic inhibitor). The homogenizate was centrifuged at 105,000 g for 1 hour. The supernatant was loaded on a DEAE-Sephacel column (15×1.6 cm) pre-equilibrated with buffer B (buffer A without the saccharose, EGTA and protease inhibitors). The column was washed until there was no detectable absorption at 280 nm, then eluted with a linear gradient of NaCl (0–0.5 M) in buffer B. 3-ml fractions were collected and enzyme activity was determined under the conditions described hereinafter to localize the different enzymes PDE1, PDE3, PDE4 and PDE5, which were aliquoted and frozen at −80° C. (Lugnier et al., Biochem. Phamacol., 35 (1986) 1746–1751). PDE2 was prepared from bovine endothelial cells by the same methods (Lugnier and Schini, Biochem. Pharmacol. 1990, 39; 75–84).
(§2) Cyclic nucleotide phosphodiesterase activity was determined by a radioenzymatic method using tritium-labelled cyclic GMP or AMP (1 μM) as substrate (Lugnier et al., 1986). ^3H-labelled adenosine or guanosine monophosphate formed by hydrolysis of the radiolabelled cyclic nucleotide was then converted to ^3H-labelled adenosine or guanosine in a second reaction with […] in excess. The nucleoside formed was separated from the nucleotides by anion exchange chromatography. Nucleoside radioactivity was determined by liquid scintillation counting. Enzymatic incubations were carried out under conditions allowing no more than 15% hydrolysis of the substrate; each point was performed in duplicate.
(§3) The activity of the compounds was evaluated on other phosphodiesterase isoforms, particularly basal state or calmodulin-activated PDE1 from vascular smooth muscle, basal state or cyclic GMP-activated PDE2 from vascular endothelial cells, PDE3 and PDE5 from vascular smooth muscle.
(§4) The results obtained are presented in Table 4 hereinafter and are expressed as the percentage inhibition of enzymatic activity produced by […] of the tested compound.

[2] = target: PDE1; experiment: Selectivity: inhibition of PDE1, radioenzymatic phosphodiesterase assay; assay type: biochemical, bovine; parameters: PDE1 percentage inhibition at 10 μM: unit: %; details: Table 4 Selectivity; for PDE1 percentage inhibition at 10 μM: compound at 10 μM
Description: as §1, §2, §3, §4

[3] = target: PDE4; experiment: Inhibition of PDE4, radioenzymatic phosphodiesterase assay; assay type: biochemical, bovine
Procedure, shortened: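 PDE4 partially purified from bovine aortic media by 105,000 g centrifugation and anion-exchange chromatography with an NaCl gradient. Activity measured radioenzymatically: product nucleoside separated from nucleotides by anion exchange and counted by liquid scintillation.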

[4] = target: T2, PDE2 (Bos taurus, UniProt P14099); experiment: Selectivity: inhibition of PDE2, radioenzymatic phosphodiesterase assay; assay type: biochemical, bovine; details: Table 4 Selectivity; for inhibition at 10 µM: compound at 10 μM, read-out: PDE2 percentage inhibition at 10 μM
T2 construct: PDE2 was prepared from bovine endothelial cells by the same methods; endogenous in cells; host or cells: bovine vascular endothelial cells, DEAE-Sephacel fraction
T2 sequence (P14099 1-921): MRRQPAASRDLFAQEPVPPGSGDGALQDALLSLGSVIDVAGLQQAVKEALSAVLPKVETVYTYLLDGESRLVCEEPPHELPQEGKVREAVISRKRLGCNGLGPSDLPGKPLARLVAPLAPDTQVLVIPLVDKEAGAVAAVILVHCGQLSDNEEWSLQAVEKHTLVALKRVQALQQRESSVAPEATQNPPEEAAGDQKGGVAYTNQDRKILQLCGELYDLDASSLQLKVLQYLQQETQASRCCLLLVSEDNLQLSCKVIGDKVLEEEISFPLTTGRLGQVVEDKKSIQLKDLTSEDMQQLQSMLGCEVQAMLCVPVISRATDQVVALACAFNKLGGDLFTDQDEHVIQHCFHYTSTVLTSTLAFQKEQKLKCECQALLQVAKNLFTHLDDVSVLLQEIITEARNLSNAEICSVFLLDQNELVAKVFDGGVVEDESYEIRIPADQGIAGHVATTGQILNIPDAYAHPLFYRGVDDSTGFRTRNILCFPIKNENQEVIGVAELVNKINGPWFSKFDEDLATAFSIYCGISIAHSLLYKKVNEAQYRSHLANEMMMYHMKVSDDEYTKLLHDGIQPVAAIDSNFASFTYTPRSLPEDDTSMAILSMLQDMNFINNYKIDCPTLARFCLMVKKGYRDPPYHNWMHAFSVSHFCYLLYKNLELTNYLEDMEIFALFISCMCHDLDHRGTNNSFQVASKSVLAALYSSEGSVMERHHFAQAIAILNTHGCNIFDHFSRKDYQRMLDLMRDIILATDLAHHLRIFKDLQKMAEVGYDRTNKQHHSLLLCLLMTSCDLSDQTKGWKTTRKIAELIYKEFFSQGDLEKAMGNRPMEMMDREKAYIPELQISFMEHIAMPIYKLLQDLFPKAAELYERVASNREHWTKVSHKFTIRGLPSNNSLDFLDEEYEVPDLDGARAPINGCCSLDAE
Description: as §1, §2, §3, §4

[5] = test system: IL1β, IL6 and IL8; experiment: IL1β, IL6 and IL8 secretion by LPS-activated mononuclear cells from venous blood; assay type: cell-based, human; details: compound at 1 μM
[6] = test system: TNFα; experiment: TNFα production by LPS-activated mononuclear cells from venous blood (ELISA); assay type: cell-based; details: Homo sapiens
Description: Compounds according to the invention were assessed for anti-inflammatory properties on mononuclear cells from venous blood of healthy donors (n=4), by a protocol approved by the Alsace No. 1 Ethics Committee. More specifically, the cells were incubated for 24 hours in 24-well plates in the presence of the test compound, after activation by Salmonella Abortis Equi lipopolysaccharide (LPS) (5 pg/ml) (cf. De Groote et al., Cytokine 4, 1992, 239). After incubation, TNFα concentrations were determined in the culture supernatant by an ELISA method (Antibody Solutions, Half Moon Bay, Calif., USA).

[7] = target: T3, PDE3 (Bos taurus, UniProt A0A3Q1M1E8); experiment: Selectivity: inhibition of PDE3, radioenzymatic phosphodiesterase assay; assay type: biochemical, bovine; details: read-out: PDE3 percentage inhibition at 10 μM
T3 sequence (A0A3Q1M1E8 1-1126): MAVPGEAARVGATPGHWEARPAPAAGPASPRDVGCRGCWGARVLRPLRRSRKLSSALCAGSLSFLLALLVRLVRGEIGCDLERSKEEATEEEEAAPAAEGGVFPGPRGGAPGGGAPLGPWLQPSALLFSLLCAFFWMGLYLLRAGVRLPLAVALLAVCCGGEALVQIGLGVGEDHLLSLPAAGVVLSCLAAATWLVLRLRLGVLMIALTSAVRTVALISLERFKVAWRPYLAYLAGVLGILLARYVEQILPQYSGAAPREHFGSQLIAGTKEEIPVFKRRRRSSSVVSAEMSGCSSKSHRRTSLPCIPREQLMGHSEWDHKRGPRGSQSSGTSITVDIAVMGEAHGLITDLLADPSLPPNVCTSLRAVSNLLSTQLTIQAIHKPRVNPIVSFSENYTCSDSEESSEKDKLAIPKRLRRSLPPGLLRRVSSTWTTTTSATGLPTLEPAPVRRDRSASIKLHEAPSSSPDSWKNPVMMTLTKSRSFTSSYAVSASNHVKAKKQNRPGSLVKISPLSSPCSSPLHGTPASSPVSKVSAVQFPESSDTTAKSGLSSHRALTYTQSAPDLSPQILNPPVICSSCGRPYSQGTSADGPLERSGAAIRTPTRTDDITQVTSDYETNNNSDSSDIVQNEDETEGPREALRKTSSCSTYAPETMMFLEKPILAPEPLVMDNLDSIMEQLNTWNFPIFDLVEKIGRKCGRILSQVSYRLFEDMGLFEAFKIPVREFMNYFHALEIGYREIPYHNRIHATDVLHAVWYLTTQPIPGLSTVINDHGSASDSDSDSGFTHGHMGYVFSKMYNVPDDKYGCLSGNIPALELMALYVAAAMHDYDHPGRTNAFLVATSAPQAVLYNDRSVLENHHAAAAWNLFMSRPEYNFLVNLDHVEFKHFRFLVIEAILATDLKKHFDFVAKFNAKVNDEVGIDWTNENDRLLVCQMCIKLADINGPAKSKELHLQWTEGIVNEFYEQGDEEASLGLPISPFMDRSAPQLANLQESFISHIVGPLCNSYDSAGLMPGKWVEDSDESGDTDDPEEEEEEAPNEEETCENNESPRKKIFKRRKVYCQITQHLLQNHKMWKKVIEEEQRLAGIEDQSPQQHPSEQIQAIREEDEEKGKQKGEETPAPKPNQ
Description: as §1, §2, §3, §4

[8] = Table 1, formula (III), 1 μM cyclic AMP
[9] = Table 2, formula (XXII), 1 μM cyclic AMP
[10] = Table 3, formula (II), 1 μM cyclic AMP

Work on `COc1cc2c(cc1OC)C(c1cc3ccccc3s1)=NN(C)C(=O)C2` [IIIab, 1-(2-benzo[b]thienyl)-7,8-dimethoxy-3-methyl-3,5-dihydro-4H-2,3-benzodiazepin-4-one] yielded an IC50 [1] of 4300 nM, an IC50 [2] of 3810 nM and an IC50 [3, 8] of 300 nM. For the same compound, the IC50 ([3]; Table 4 Selectivity) was 300 nM, the IC50 [4] was 16000 nM and the “IL1β, IL6 and IL8 secretion levels” value [5] was “not at all altered”. For the same compound, the inhibition at 1 µM ([6]; compound at 1 μM, 24 hours, LPS 5 pg/ml, read-out: inhibition of TNFα production) was 100%.

With `CCOc1cc2c(cc1OCC)C(c1ccccc1)=NC(C)C(=O)N2` (stereo not drawn) [XXIIai, 7,8-diethoxy-3-methyl-5-phenyl-1,3-dihydro-2H-1,4-benzodiazepin-2-one] the inhibition at 10 µM [7] was 55%, the “PDE1 percentage inhibition at 10 μM” value [2] was 55% and the IC50 [3, 9] was 1700 nM. The IC50 ([3]; Table 4 Selectivity) was 1700 nM and the inhibition at 10 µM [4] was 6%.

In the case of `CCOc1cc2c(cc1OC)C(c1ccccc1)=NCC(=O)N2` [XXIIam, 8-ethoxy-7-methoxy-5-phenyl-1,3-dihydro-2H-1,4-benzodiazepin-2-one], the inhibition at 10 µM [7] is reported as 36%, the inhibition at 10 µM ([1]; compound at 10 μM, read-out: PDE5 percentage inhibition at 10 μM) is reported as 35% and the “PDE1 percentage inhibition at 10 μM” value [2] is reported as 29%. For the same compound, the IC50 [3, 9] was 700 nM, the IC50 ([3]; Table 4 Selectivity) was 700 nM and the inhibition at 10 µM [4] was 36%.

For `CCOc1cc2c(cc1OC)C(c1ccccc1)=NC(Cc1cccc(C(N)=O)c1)C(=O)N2C` (stereo not drawn) [IIdh, 3-[(8-ethoxy-7-methoxy-1-methyl-2-oxo-5-phenyl-2,3-dihydro-1H-1,4-benzodiazepin-3-yl)methyl]benzamide], the IC50 [3, 10] was 520 nM and the IC50 ([6]; read-out: anti-TNFα activity IC50) was 100 to 1000 nM.

In the case of `COc1cc2c(cc1OC)C(c1ccc(-c3ccco3)cc1)=NN(C)C(=O)C2` [IIIav, 1-[4-(2-furyl)phenyl]-7,8-dimethoxy-3-methyl-3,5-dihydro-4H-2,3-benzodiazepin-4-one], the inhibition at 10 µM [7] is reported as 92%, the IC50 [1] is reported as 40000 nM and the “PDE1 percentage inhibition at 10 μM” value [2] is reported as 49%. For the same compound, the IC50 [3, 8] was 900 nM, the IC50 ([3]; Table 4 Selectivity) was 900 nM and the IC50 [4] was 19000 nM.

With `CCOc1cc2c(cc1OCC)C(CC)C(=O)N(C)N=C2c1cc2ccccc2s1` (stereo not drawn) [IIIbb, 1-(2-benzo[b]thienyl)-7,8-diethoxy-5-ethyl-3-methyl-3,5-dihydro-4H-2,3-benzodiazepin-4-one] the IC50 [1] was 5700 nM, the IC50 [2] was 14000 nM and the IC50 [3, 8] was 87 nM. For the same compound, the IC50 ([3]; Table 4 Selectivity) was 87 nM and the inhibition at 10 µM [4] was 25%.

For `CCOc1cc2c(cc1OCC)N(CC)C(=O)CN=C2c1ccccc1` [IIbg, 7,8-diethoxy-1-ethyl-5-phenyl-1,3-dihydro-2H-1,4-benzodiazepin-2-one], the inhibition at 10 µM [7] was 40%, the “PDE1 percentage inhibition at 10 μM” value [2] was 47% and the IC50 [3, 10] was 900 nM and 1600 nM. For the same compound, the IC50 ([3]; Table 4 Selectivity) was 900 nM and the inhibition at 10 µM [4] was 20%.
